These results are taken from paper PMC9851200, “Multiparameter phenotypic screening for endogenous TFEB and TFE3 translocation identifies novel chemical series modulating lysosome function” (Autophagy, 2022).

Read-outs that look alike come from different tables or passages of the source.

What all share (details): PKIS2 primary screening
In one data set the test system is endogenous TFE3. Nature of the data set: TFE3 nuclear translocation, immunocytochemistry high-content imaging. The format is cell-based.
Data set [1] deals with SH-SY5Y cells. Nature of the data set: Nuclear count from microscopy images (cellular growth and toxicity). Also: reference of the scale not given here.
Data set [2] has as its system SH-SY5Y cells.
Source text: The PKIS2 Library was supplied by The Structural Genomics Consortium at the University of North Carolina at Chapel Hill.
A further data set has as its system endogenous TFEB. Nature of the data set: TFEB nuclear translocation, immunocytochemistry high-content imaging. The format is cell-based.
Data set [3] concerns SH-SY5Y cells. Nature of the data set: AK (adenylate kinase) release ToxiLight cytotoxicity assay. Also: reference of the scale not given here.
For DQ Intensity in this document: reference of the scale not given here.
For DQ Spot in this document: reference of the scale not given here.

Turning to `CC(C)N1CCC(n2cnc(-c3ccc(F)cc3)c2-c2ccnc(N)n2)CC1` [UNC10225258A], the TFE3 % with endogenous TFE3 was found to be 12.02%. Moreover, the “Nuclear Count” value with SH-SY5Y cells [1] was 83.47. Moreover, in the data set with SH-SY5Y cells [2], the “DQ Intensity” value was 110.79 and the “DQ Spot” value was found to be 99.41. Also, the TFEB % in the data set on endogenous TFEB was 5.04%. The AK in the data set with SH-SY5Y cells [3] came out at 107.69.

In the data set on endogenous TFE3, `CC1=C(C(=O)Nc2cc3cn[nH]c3cc2F)C(c2ccc(C(F)(F)F)cc2)CC(=O)N1` (stereo not drawn) [UNC10225339A] had a TFE3 % of 22.61%. For the same compound, in the data set on SH-SY5Y cells [1], the “Nuclear Count” value worked out at 108.36. Besides, in the data set with SH-SY5Y cells [2], the “DQ Intensity” value was found to be 158.90 and the “DQ Spot” value was 127.41. The compound also had a TFEB % in the data set on endogenous TFEB of 3.31%. Besides, the AK in the data set with SH-SY5Y cells [3] was 70.62.

For `C[C@@H]1CCCCN1c1cc(-c2ccc3c(N)n[nH]c3c2)nc(N)n1` [GSK2258759], the TFE3 % in the data set with endogenous TFE3 amounted to 12.52%. Besides, the “Nuclear Count” value in the data set with SH-SY5Y cells [1] turned out to be 88.84. Further, in the data set with SH-SY5Y cells [2] (DQ Red BSA intensity), the “DQ Intensity” value amounted to 61.15. Also, the “DQ Spot” value in the data set on SH-SY5Y cells [2] (DQ Red BSA spot count) was determined as 84.49. For the same compound, the TFEB % in the data set on endogenous TFEB is reported as 3.40%. The same compound registered an AK in the data set with SH-SY5Y cells [3] of 88.63.

The compound `COc1cccc(NC(=O)Nc2ccc(C)c(-c3ccc(C(=O)Nc4ccncc4)cc3)c2)c1` [UNC10225200A] returned a TFE3 % with endogenous TFE3 of 12.37%. For the same compound, in the data set on SH-SY5Y cells [1], the “Nuclear Count” value is listed as 79.81. Also, in the data set on SH-SY5Y cells [2], the “DQ Intensity” value is recorded as 99.65 and the “DQ Spot” value turned out to be 116.14. In addition, the TFEB % with endogenous TFEB amounted to 7.95%. In the data set on SH-SY5Y cells [3], this compound returned an AK of 112.40.

Turning to `O=C(NCCNc1ccnc(NCc2ccc(F)cc2)n1)c1cc2ccccc2s1` [GSK1379944], the TFE3 % with endogenous TFE3 amounted to 12.27%. Besides, in the data set with SH-SY5Y cells [1], the “Nuclear Count” value was determined as 79.28. For the same compound, the “DQ Intensity” value in the data set on SH-SY5Y cells [2] (DQ Red BSA intensity) is recorded as 122.34. Moreover, the “DQ Spot” value with SH-SY5Y cells [2] (DQ Red BSA spot count) is 117.48. The TFEB % in the data set on endogenous TFEB is 8.85%. For the same compound, the AK in the data set with SH-SY5Y cells [3] was 378.86.

In turn, `COc1ccc(Nc2nccc(NCCNC(=O)c3cc4ccccc4s3)n2)cc1` [GSK1379896] displayed a TFE3 % with endogenous TFE3 of 17.76%. The “Nuclear Count” value in the data set on SH-SY5Y cells [1] came out at 88.87. For the same compound, the “DQ Intensity” value in the data set with SH-SY5Y cells [2] (DQ Red BSA intensity) is 100.56. The “DQ Spot” value in the data set on SH-SY5Y cells [2] (DQ Red BSA spot count) was 107.99. Besides, the TFEB % in the data set on endogenous TFEB is recorded as 5.04%. Further, the AK with SH-SY5Y cells [3] is 100.12.

Take `COC(=O)Nc1nc2ccc(Oc3ccc(NC(=O)Nc4cc(C(F)(F)F)ccc4F)cc3)cc2[nH]1` [GW654607]: the TFE3 % in the data set on endogenous TFE3 was determined as 33.87%. Also, the “Nuclear Count” value in the data set with SH-SY5Y cells [1] is 81.29. The “DQ Intensity” value in the data set on SH-SY5Y cells [2] (DQ Red BSA intensity) is 53.63. Also, the “DQ Spot” value in the data set on SH-SY5Y cells [2] (DQ Red BSA spot count) was determined as 73.16. Also, the TFEB % with endogenous TFEB was found to be 5.38%. Further, the AK in the data set on SH-SY5Y cells [3] turned out to be 90.67.

In the data set with endogenous TFE3, `Nc1cccc(-c2ccc3c(N)n[nH]c3c2)c1` [GSK2193613] came in with a TFE3 % of 9.08%. The “Nuclear Count” value in the data set with SH-SY5Y cells [1] turned out to be 112.12. In the data set with SH-SY5Y cells [2] (DQ Red BSA intensity), the “DQ Intensity” value was 55.67. Moreover, the “DQ Spot” value in the data set on SH-SY5Y cells [2] (DQ Red BSA spot count) amounted to 76.28. In the data set with endogenous TFEB, this compound showed a TFEB % of 4.96%. The same compound yielded an AK with SH-SY5Y cells [3] of 94.13.

As for `CCCCCc1nc2c(N)ncnc2n1CCCCC` [UNC10225389A], in the data set with endogenous TFE3, the TFE3 % is reported as 10.63%. The “Nuclear Count” value in the data set on SH-SY5Y cells [1] turned out to be 110.88. In the data set on SH-SY5Y cells [2], the “DQ Intensity” value is listed as 103.02 and the “DQ Spot” value is 109.08. The compound further had a TFEB % with endogenous TFEB of 4.57%. In addition, the AK with SH-SY5Y cells [3] is listed as 96.98.

In the data set with endogenous TFE3, `COc1cc(Nc2nccc(N3CCC(NC(=O)C4COc5ccccc5O4)C3)n2)cc(OC)c1OC` (stereo not drawn) [GSK1379761] showed a TFE3 % of 10.33%. In the data set on SH-SY5Y cells [1], the “Nuclear Count” value is listed as 125.75. In addition, in the data set with SH-SY5Y cells [2] (DQ Red BSA intensity), the “DQ Intensity” value is listed as 95.14. The “DQ Spot” value with SH-SY5Y cells [2] (DQ Red BSA spot count) was 97.75. For the same compound, the TFEB % with endogenous TFEB is listed as 2.44%. The compound also yielded an AK with SH-SY5Y cells [3] of 96.01.

`NCCCC(NC(=O)c1cc(Br)c(-c2ccnc3[nH]ccc23)s1)c1ccccc1.O=C(O)C(F)(F)F.O=C(O)C(F)(F)F` (stereo not drawn) [UNC10225265A]: the TFE3 % in the data set on endogenous TFE3 came out at 12.13%. Moreover, the “Nuclear Count” value with SH-SY5Y cells [1] worked out at 128.28. The “DQ Intensity” value in the data set on SH-SY5Y cells [2] (DQ Red BSA intensity) is recorded as 112.08. The “DQ Spot” value in the data set on SH-SY5Y cells [2] (DQ Red BSA spot count) worked out at 100.65. The compound further had a TFEB % with endogenous TFEB of 4.66%. In the data set with SH-SY5Y cells [3], this compound had an AK of 80.18.

For the compound `C[C@@H]1CC[C@@H](C(=O)Nc2ccccc2)CN1c1cc(-c2ccc3c(N)n[nH]c3c2)nc(N)n1` [GSK2286062], in the data set with endogenous TFE3, the TFE3 % is listed as 8.18%. Besides, the “Nuclear Count” value in the data set on SH-SY5Y cells [1] was 138.15. Moreover, the “DQ Intensity” value with SH-SY5Y cells [2] (DQ Red BSA intensity) amounted to 74.11. The “DQ Spot” value in the data set on SH-SY5Y cells [2] (DQ Red BSA spot count) was 77.23. The compound also registered a TFEB % with endogenous TFEB of 4.27%. Also, the AK with SH-SY5Y cells [3] is reported as 87.26.

The compound `Cc1ccc(-c2cc(-c3c[nH]nc3-c3ccccn3)ccn2)cc1` [UNC10225125A] displayed a TFE3 % with endogenous TFE3 of 5.68%. Also, the “Nuclear Count” value in the data set with SH-SY5Y cells [1] was found to be 147.86. The “DQ Intensity” value in the data set with SH-SY5Y cells [2] (DQ Red BSA intensity) is on record as 86.68. For the same compound, the “DQ Spot” value with SH-SY5Y cells [2] (DQ Red BSA spot count) is recorded as 93.68. This compound registered a TFEB % in the data set with endogenous TFEB of 3.15%. This compound also returned an AK with SH-SY5Y cells [3] of 116.20.

On to `COc1nccc(-c2c(-c3ccc(F)cc3)ncn2CCCN2CCOCC2)n1` [UNC10225213A], for which the TFE3 % in the data set with endogenous TFE3 came out at 16.14%. Also, the “Nuclear Count” value with SH-SY5Y cells [1] is 107.77. For the same compound, in the data set on SH-SY5Y cells [2], the “DQ Intensity” value was 119.56 and the “DQ Spot” value is given as 105.70. Further, the TFEB % with endogenous TFEB is listed as 5.79%. For the same compound, in the data set on SH-SY5Y cells [3], the AK is recorded as 78.43.
